9 compounds from US20240124467A1, “FUSED PYRIMIDINE COMPOUNDS AS INHIBITORS OF MENIN-MLL INTERACTION” (Biomea Fusion, Inc., priority 2020, published 2024) can be followed below.

Read-outs that look alike come from different tables or passages of the source.

Type in all cases: cell-based
For one assay, the system named is K-562. As to the kind of experiment: Cell proliferation inhibition (CellTiter-Glo), K-562 cells. The following applies: Homo sapiens, K-562 (BCR-ABL). The method in brief: (§1)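 Leukemia lines in RPMI-1640/10% FBS at 37° C. were exposed in duplicate to seven compound concentrations (5.00×10^−6 to 6.86×10^−9 M), with 0.2% DMSO as 100% proliferation. At day 4 cells were diluted 1:4 in fresh medium containing compound. Viability was read by CellTiter-Glo luminescence at day 4 and day 7.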
Background: ATP-based viability assays read luminescence as a measure of living cells.

In a further assay the test system is MOLM-13. In words: Cell proliferation inhibition (CellTiter-Glo), MOLM-13 cells. The following applies: Homo sapiens, MOLM-13 (MLL-AF9). The method in brief: as §1
Another assay deals with MV4-11. As to the kind of experiment: Cell proliferation inhibition (CellTiter-Glo), MV4-11 cells. The following applies: Homo sapiens, MV4-11 (MLL-AF4). The method in brief:
as §1

A further assay has as its system OCI-AML3. In words: Cell proliferation inhibition (CellTiter-Glo), OCI-AML3 cells. The note with it: Homo sapiens. On the procedure: (§2) The present example evaluates the ability of compounds described herein, inhibitors of Menin/MLL interaction, to inhibit cell proliferation. The proliferation inhibitory effect was investigated in human MLL-leukemia cells selected on the bases of MLL fusion proteins and listed in the table below.
(§3) ATP is present in all metabolically active cells and is considered as a marker for cell viability and proliferation. The metabolic cell activity was determined using the CellTiter-Glo kit from Promega, an ATP monitoring system based on the production of luminescence by the reaction of ATP with added UltraGlo® recombinant luciferase (Kawano et al., 2016, PLOS One, 8:11(7):e0158888), according to the supplier's experimental recommendations. The assay is based on a 96 well plate format. All experiments were carried out in duplicate in one test occasion.
(§4) Test items were dissolved at 20 mM in DMSO with purity ≥99.9% (Sigma catalog no. D8418) and stored at −20° C. Cells were maintained in RPMI-1640 medium (Invitrogen catalog no. 618700) supplemented with 10% of Heat Inactivated FBS (Invitrogen catalog no. 10500) and 1% Pen-Strep (Invitrogen catalog no. 15140) and cultured at 37° C. in a humidified incubator with 5% CO2. Cell lines were grown in suspension and the cell density was maintained in a range of 5×10^4-1×10^6 viable cells/ml where possible. Cells were pelleted at 130 g×5 min.
(§5) Serial dilutions of compounds 1 to 3 in DMSO 100% were prepared starting from a 2.5 mM solutions (prepared by diluting 1:8 the 20 mM stock solution) to generate a 7 point concentration response curve (CRC). Seven concentrations of test compounds (e.g., 5.00×10^−6-1.67×10^−6-5.56×10^−7-1.85×10^−7-6.17×10^−8-2.06×10^−8-6.86×10^−9 M) were assessed in duplicate in an individual test occasion in parallel in the selected cell lines. KO-539 was used as a reference compound and tested in duplicate at seven similar concentrations. 100% of proliferation was represented by the untreated cells (0.2% DMSO).
(§6) Cell proliferation inhibition was monitored at both the following end points: Day 4 (T4) and Day 7 (T7). For the appropriate cell density during the exponential cell growth and re-supply with fresh compound solution at T4, cells were diluted (1:4) with fresh medium containing the compound concentration (1×).
(§7) For each plate to test, one 0.4 μL copy plate and four 0.3 μL copy plates were stamped into 96-well plates not treated for cell adhesion (Sarstedt—cat. no. 82.1581.001) by acoustic liquid handling (Echo) at a concentration which was 500 fold the final assay concentration. Stamped plates were stored at −20° C.
(§8) On Day 0, the day of the experiment cell line suspensions were counted by Cell Viability Analyser, Vi-CELL (Beckman Coulter AY15292), and diluted with fresh medium to obtain the following cell densities: K-562 500 c/ml, MOLM-13 1,000 c/ml, MV4-11 10,000 c/ml, OCI-AML-3 500 c/ml, and U-937 500-1,000 c/ml. 200 μL/well and 150 μL/well of cell suspension were added into the 0.4 μL/well and 0.3 μL/well compound plates, respectively. Cell plate containing 200 μL/well suspension were incubated at 37° C. in a humidified incubator with 5% CO2. From each well of the 150 μL/well cell assay plate, 100 μL were harvested and transferred into a 96-well Optiplate (Perkin Elmer, cat. no. 6005290). Cell viability was measured as described below.
(§9) On Day 4, 150p/well of fresh medium was added into a new 0.3 μL/well copy compound plates. From each well of the 200 μL/well cell assay plate, 100 μL was sampled for the cell viability measurement as described below. 50p was harvested and added to the 150p/well compound plate prepared as described in the first point to dilute 1:4 the cell suspension. The cell assay plate diluted and containing 200 μL/well suspension was incubated at 37° C. in a humidified incubator with 5% CO2.
(§10) On Day 4, 150p/well of fresh medium was added into a new 0.3 μL/well copy compound plates. […]

The next assay deals with U-937. As to the kind of experiment: Cell proliferation inhibition (CellTiter-Glo), U-937 cells. The following applies: Homo sapiens, U-937 (MLL-wt), Table 3. On the procedure: as §2, §3, §4, §5, §6, §7, §8, §9, §10
[1] abbreviates: K562, 96 h, 4 d, Table 3, read-out: K-562 IC50 μM 4 d.
Setting [2] is: K562, 168 h, 7 d, Table 3, read-out: K-562 IC50 μM 7 d.
Where [3] appears, read: 96 h, 4 d, Table 3, read-out: MOLM13 μM 4 d.
The mark [4] stands for this setting: 168 h, 7 d, Table 3, read-out: MOLM13 μM 7 d.
Where [5] appears, read: 96 h, 4 d, Table 3, read-out: MV4-11 IC50 μM 4 d.
Where [6] appears, read: 168 h, 7 d, Table 3, read-out: MV4-11 IC50 μM 7 d.
Where [7] appears, read: OCI-AML-3, 96 h, 4 d, Table 3, read-out: OCI-AML3 IC50 μM 4 d.
The mark [8] stands for this setting: OCI-AML-3, 168 h, 7 d, Table 3, read-out: OCI-AML3 IC50 μM 7 d.
Setting [9] is: 96 h, 4 d, read-out: U-937 IC50 μM 4 d.
[10] abbreviates: 168 h, 7 d, read-out: U-937 IC50 μM 7 d.
Setting [11] is: K562, 96 h, Day 4, read-out: K-562 IC50 μM (Day 4).
Where [12] appears, read: K562, 168 h, Day 7, read-out: K-562 IC50 μM (Day 7)*.
[13] abbreviates: 96 h, Day 4, read-out: MOLM-13 Day IC50 μM (Day 4)*.
The mark [14] stands for this setting: 168 h, Day 7, read-out: MOLM-13 Day IC50 μM (Day 7)*.
Where [15] appears, read: 96 h, Day 4, read-out: MV-4:11 IC50 μM (Day 4)*.
Setting [16] is: 168 h, Day 7, read-out: MV-4:11 IC50 μM (Day 7)*.

Consider `C=CC(=O)N(C)[C@@H]1CCCN(Cc2ccnc(C(=O)Nc3ccc(-c4cc5c(N6CCOCC6)ncnc5[nH]4)cc3)c2)C1` [Compound B0700-301, (R)-4-((3-(N-methylacrylamido)piperidin-1-yl)methyl)-N-(4-(4-morpholino-7H-pyrrolo[2,3-d]pyrimidin-6-yl)phenyl)picolinamide], for which the IC50 is 0.263 µM in the assay with K-562 (setting [1]); 0.191 µM in the assay with K-562 (setting [2]); 0.056 µM in the assay with MOLM-13 (setting [3]); 0.044 µM with MOLM-13 (setting [4]); 0.085 µM in the assay with MV4-11 (setting [5]); 0.069 µM in the assay on MV4-11 (setting [6]). Further, the IC50 was 0.066 µM in the assay with OCI-AML3 (setting [7]), 0.028 µM with OCI-AML3 (setting [8]), 0.105 µM in the assay on U-937 (setting [9]) and 0.026 µM in the assay with U-937 (setting [10]).

As for `C=CC(=O)N1CCCC(Nc2ccnc(C(=O)Nc3ccc(-c4cc5c(N6CCOCC6)ncnc5[nH]4)cc3)c2)C1` (stereo not drawn) [Compound B0700-302, 4-((1-acryloylpiperidin-3-yl)amino)-N-(4-(4-morpholino-7H-pyrrolo[2,3-d]pyrimidin-6-yl)phenyl)picolinamide], the IC50 in the assay on K-562 (setting [1]) was found to be 0.17 µM; in the assay on K-562 (setting [2]) it was 0.138 µM; in the assay on MOLM-13 (setting [3]), 0.063 µM; with MOLM-13 (setting [4]) it was 0.05 µM; in the assay on MV4-11 (setting [5]), 0.098 µM; with MV4-11 (setting [6]) it was 0.089 µM. Moreover, the IC50 in the assay on OCI-AML3 (setting [7]) was found to be 0.043 µM; in the assay with OCI-AML3 (setting [8]), 0.044 µM; in the assay on U-937 (setting [9]), 0.072 µM; with U-937 (setting [10]) it was 0.037 µM.

Take `C=CC(=O)N1CCN(CCc2ccnc(C(=O)Nc3ccc(-c4cc5c(N6CCOCC6)ncnc5[nH]4)cc3)c2)CC1` [Compound B0700-303, 4-(2-(4-acryloylpiperazin-1-yl)ethyl)-N-(4-(4-morpholino-7H-pyrrolo[2,3-d]pyrimidin-6-yl)phenyl)picolinamide]: the IC50 in the assay on K-562 (setting [1]) is 0.085 µM; with K-562 (setting [2]) it was 0.028 µM; in the assay on MOLM-13 (setting [3]), 0.049 µM; in the assay on MOLM-13 (setting [4]), 0.034 µM; with MV4-11 (setting [5]) it was 0.051 µM; with MV4-11 (setting [6]), 0.05 µM. Moreover, the IC50 worked out at 0.076 µM with OCI-AML3 (setting [7]), 0.05 µM with OCI-AML3 (setting [8]), 0.043 µM in the assay on U-937 (setting [9]) and 0.022 µM in the assay with U-937 (setting [10]).

Turning to `C=CC(=O)N[C@@H]1CCCN(Cc2ccnc(C(=O)NC3CCN(c4nc5c(N6CCOCC6)ncnc5[nH]4)CC3)c2)C1` [Compound B0700-308, (R)-4-((3-acrylamidopiperidin-1-yl)methyl)-N-(1-(6-morpholino-9H-purin-8-yl)piperidin-4-yl)picolinamide], the IC50 in the assay on K-562 (setting [1]), in the assay on K-562 (setting [2]), with MOLM-13 (setting [3]), in the assay on MOLM-13 (setting [4]), in the assay on MV4-11 (setting [5]) and in the assay on MV4-11 (setting [6]) was above 5 µM in each case. In addition, the IC50 with OCI-AML3 (setting [7]), with OCI-AML3 (setting [8]), in the assay with U-937 (setting [9]) and in the assay with U-937 (setting [10]) was above 5 µM each time.

For `O=C(/C=C/CN1CC(F)C1)Nc1ccc(CC(=O)Nc2ccc(-c3cc4c(N5CCOCC5)ncnc4[nH]3)cc2)cc1` [Compound B0700-312, (E)-4-(3-fluoroazetidin-1-yl)-N-(4-(2-((4-(4-morpholino-7H-pyrrolo[2,3-d]pyrimidin-6-yl)phenyl)amino)-2-oxoethyl)phenyl)but-2-enamide], the IC50 with K-562 (setting [1]) was above 5 µM; with K-562 (setting [2]) it was above 5 µM; in the assay with MOLM-13 (setting [3]), 2.34 µM; in the assay on MOLM-13 (setting [4]) it was 0.537 µM; with MV4-11 (setting [5]), 1.62 µM; with MV4-11 (setting [6]), 1 µM. For the same compound, the IC50 was above 5 µM with OCI-AML3 (setting [7]), 1.95 µM in the assay on OCI-AML3 (setting [8]), above 5 µM in the assay with U-937 (setting [9]) and above 5 µM with U-937 (setting [10]).

Consider `C=CC(=O)Nc1ccc(CC(=O)Nc2ccc(-c3cc4c(C)ncnc4[nH]3)cc2)cc1` [Compound B0700-313, N-(4-(2-((4-(4-methyl-7H-pyrrolo[2,3-d]pyrimidin-6-yl)phenyl)amino)-2-oxoethyl)phenyl)acrylamide], for which the IC50 is above 5 µM with K-562 (setting [1]); 0.288 µM with K-562 (setting [2]); above 5 µM in the assay on MOLM-13 (setting [3]); 3.31 µM in the assay on MOLM-13 (setting [4]); above 5 µM with MV4-11 (setting [5]); above 5 µM in the assay on MV4-11 (setting [6]). The IC50 in the assay with OCI-AML3 (setting [7]) is above 5 µM; with OCI-AML3 (setting [8]) it was 0.407 µM; in the assay on U-937 (setting [9]), above 5 µM; with U-937 (setting [10]), 1.26 µM.

Take `C=CC(=O)N[C@H]1CCN(c2cccc(C(C)(C)C(=O)Nc3ccc(-c4cc5c(N6CCOCC6)ncnc5[nH]4)cc3)c2)C1` [Compound B0700-617, (S)—N-(1-(3-(2-methyl-1-((4-(4-morpholino-7H-pyrrolo[2,3-d]pyrimidin-6-yl)phenyl)amino)-1-oxopropan-2-yl)phenyl)pyrrolidin-3-yl)acrylamide]: the IC50 with K-562 (setting [11]) was 4.55 µM; in the assay with K-562 (setting [12]), 4.86 µM; with MOLM-13 (setting [13]), 0.447 µM; in the assay on MOLM-13 (setting [14]) it was 0.51 µM; in the assay on MV4-11 (setting [15]), 0.477 µM; with MV4-11 (setting [16]), 0.41 µM.

As for `C=CC(=O)N[C@H]1CCN(c2cccc(CC(=O)Nc3ccc(-c4cc5c(N6CCOCC6)ncnc5[nH]4)cc3)c2)C1` [Compound B0700-618, (S)—N-(1-(3-(2-((4-(4-morpholino-7H-pyrrolo[2,3-d]pyrimidin-6-yl)phenyl)amino)-2-oxoethyl)phenyl)pyrrolidin-3-yl)acrylamide], the IC50 with K-562 (setting [11]) stood at 8.83 µM; with K-562 (setting [12]) it was 10.1 µM; with MOLM-13 (setting [13]), 1.27 µM; in the assay on MOLM-13 (setting [14]), 1.47 µM; with MV4-11 (setting [15]), 0.786 µM; in the assay with MV4-11 (setting [16]), 0.78 µM.

For `C=CC(=O)N[C@@H]1CCCN(Cc2ccnc(C(=O)Nc3ccc(-c4cc5c(C67CCOCC6C7)ncnc5[nH]4)cc3)c2)C1` (stereo partly drawn) [Compound B0700-706], the IC50 is 1.48 µM with K-562 (setting [11]), 0.54 µM with MOLM-13 (setting [13]) and 0.47 µM with MV4-11 (setting [15]).
